“Also recorded” adds a separate entry of the source.
Tests used:
[1] = tested on: primary human atrial fibroblasts; assay: AFM spheroid stiffness, primary human atrial fibroblasts; type: cell-based; details: 1 μM, 48 h
Description: Selectivity for CAFs with respect to normal fibroblasts and other cell types was assessed by performing an identical experiment with normal fibroblasts and other cell types, where compounds were considered selective for CAFs if they only modulate CAF stiffness.
U-shaped, 384-well ULA plates (cat. no. MS-9384UZ, S-bio) were seeded with a suspension of cell-specific culture media with cells. Cells were allowed to form spheroids for an appropriate time under treatment conditions before use in experiments. Cell culture dishes (cat. no. 734-2814, VWR) were filled with collagen gel and placed at 37° C. for an appropriate time to allow solidification. For each condition, spheroids were pooled in one cell culture dish. The medium was removed (stored at 37° C.) to promote attachment of the bottom of each spheroid to the collagen gel. The cell culture dishes were incubated at 37° C. After the incubation period, the stored medium was carefully (prevent detachment of spheroids) added to the dishes.
Mechanical measurements were performed using an atomic force microscope. To indent the spheroids an in-house made colloidal probe was used. Force curves were collected using an appropriate setpoint and probe speed (depending on the stiffness of the spheroids). On each spheroid multiple force curves were collected. Collected curves were then processed using the JPK DP software. Young's modulus was extracted from the force curves. All experiments were performed in biological triplicate.
To generate 3D cultures mimicking the complexity and pathophysiology of in vivo tumors, spheroids were used (cfr. point 4). Spheroids are considered to better simulate cellular heterogeneity, nutrient and oxygen gradients, cell-cell interactions, cell-matrix interactions, gene expression profiles, stromal interactions, therapeutic responses, multicellular resistance, drug penetration and anti-apoptotic signaling.

[2] = tested on: 4T1 primary tumors and target organs for metastasis; assay: 4T1-based intraductal model: histology and immunohistological stainings; type: in vivo, BALB/c mice; details: for CD163 staining (tumor-associated macrophages) / CD11b staining (amounts of myeloid cells) / FAP-α staining / Ly6G staining: primary tumor tissue
Description: Isolated tissue of primary tumors, axillary lymph nodes, lungs and livers was fixed in buffered 3.5% formaldehyde for 24 h at room temperature (RT) and embedded in paraffin wax. Sections of 5 μm were deparaffinized, hydrated and stained with hematoxylin and eosin (H&E). To allow analysis, sections were dehydrated and mounted.
For Masson's trichrome staining, 3-5 μm thick sections were deparaffinized, hydrated and incubated ON in Bouin's solution to improve staining quality. The following day, slides were washed in distilled H2O (dH2O) and subsequently submerged 3 times in Biebrich scarlet-acid fuchsin solution, washed again in dH2O and incubated for 20 min in phosphomolybdic-phosphotungstic acid solution. Following the incubation in phosphomolybdic-phosphotungstic acid solution, slides were not rinsed, but immediately incubated in aniline blue solution for 8 min. After a final washing step with dH2O, slides were incubated in 1% acetic acid solution for 8 min. Sections were then quickly dehydrated through 94% ethyl alcohol, absolute alcohol to remove Biebrich scarlet-acid fuchsin staining and xylene to clear the slide before mounting with Tissue-Tek glass mounting medium. The staining visualizes collagen in blue, nuclei in dark red, cytoplasm in red/pink. Quantification of positive staining was established using color deconvolution (for Masson's trichrome staining) followed by automatic counting in ImageJ.
For immunohistochemical staining, antigen retrieval was performed on 3-5 μm thick deparaffinized sections with citrate buffer (10 mM tri-sodium citrate (Santa Cruz Biotechnology, Heidelberg, Germany) for α-SMA, CD11 b, Ly6G, and CD163), pH 6 or with Tris-EDTA buffer [pH 9, 10 mM Tris, 1 mM EDTA (Thermo Fisher Scientific) for PDPN and FAP-α) at 95° C. for 30 min using a pressurized Decloaking Chamber NxGen (Biocare Medical, CA, USA). The slides were cooled down to RT for 30 min and subsequently incubated on an orbital shaker at 20 rpm in a closed microscope box with tris-buffered saline (TBS, Biocare Medical)-wetted tissue paper for all blocking, rinsing (between every incubation step with TBS, 3 times for 2 min at RT) and staining steps. To block endogenous peroxidase activity, slides were first treated with 3% H2O2 in methanol for 10 min. To block non-specific binding sites, the slides were subsequently treated with serum-free protein block (Dako, Heverlee, Belgium) for 10 min.
The slides were then stained with primary antibodies diluted in Antibody Diluent (Dako) for 1 h at RT followed by incubation with secondary antibody for 30 min at RT. The used primary antibodies and dilutions were: anti-α-SMA (1:2000, clone EPR5368, Abcam, Cambridge, UK), anti-PDPN (1:100, clone PMab-1, Abcam), anti-FAP-α (1:100, polyclonal, Abcam), anti-CD11b (1:4000, clone EPR1344, Abcam), anti-Ly6G (1:1000, clone 1A8, Biolegend, CA, USA), anti-CD163 (1:500, clone EPR19518, Abcam). The used secondary antibodies were Rat-on-Mouse HRP-Polymer (Biocare Medical) for PDPN and Ly6G, and ready to-use Dako EnVision+ Rabbit for α-SMA, FAP-α, CD11b, and CD163. For visualization of HRP-positive staining, slides were treated with a 3,3′-diaminobenzidine (DAB)-containing buffer (Dako) for 10 min at RT. Counterstaining with hematoxylin was applied for 5 min at RT, followed by dehydration and mounting of the slides with Tissue-Tek glass mounting medium. Quantification of positive staining was established using color deconvolution (for DAB and hematoxylin counterstaining) followed by automatic counting in ImageJ.

[3] = compared to DMSO treatment, data not shown
[4] = primary tumor, compared to DMSO
[5] = primary tumors, compared to DMSO

Structure (SMILES)	spheroid stiffness [1]	size of lung and liver metastases (H&E) [2, 3]	Masson's trichrome staining (collagen deposition) ([2]; liver tissue, compared to DMSO)	PDPN staining ([2]; liver tissue, compared to DMSO)	α-SMA staining (CAFs) ([2]; liver tissue, compared to DMSO)	CD163 staining (tumor-associated macrophages) [2]	CD11b staining (amounts of myeloid cells) ([2]; compared to DMSO)	FAP-α staining ([2]; compared to DMSO)	Ly6G staining ([2]; compared to DMSO)	Masson's trichrome staining (collagen deposition) [2, 4]	PDPN staining ([2]; primary tumors, P<0.001)	α-SMA staining (amount of CAFs) [2, 5]	size of axillary lymph node metastases (H&E) [2, 3]
COc1cc(C(=O)/C=C/c2ccc(F)cc2)cc(OC)c1OC [Compound A1, 3-(4-Fluorophenyl)-1-(3,4,5-trimethoxyphenyl)prop2-en-1-one]	did not alter; also recorded: no effect	Smaller	significant reduction	significantly decreased	significant reduction	significantly decreased	significantly decreased	significantly decreased	reduction	significantly decreased	significantly decreased	significantly decreased	–
COc1cc2oc(-c3ccc(F)cc3)cc(=O)c2c(OC)c1OC [Compound B1, 2-(4-Fluorophenyl)-5,6,7-trimethoxy-4H-chromen-4-one]	did not alter; also recorded: no effect	–	significant reduction	significantly decreased	significant reduction	significantly decreased	significantly decreased	significantly decreased	reduction	significantly decreased	significantly decreased	significantly decreased	smaller

Reference: US20260191817A1, “FIBROBLAST MODULATORS IN STROMA-RICH TUMORS” (UNIVERSITEIT GENT, priority 2022, published 2026)
